Measurements as given in patent US9012608B2 (priority 2007, dated 2015).

Key:
[1] = mouse, in vivo
[2] = test system: B. anthracis Sterne strain spores; set-up: species or system Bacillus anthracis; conditions: in vivo

Q: With `O=C(O)c1cn(C2CC2)c2cc(N3CCNCC3)c(F)cc2c1=O` [ciprofloxacin] as the compound, how does the “tolerance to selected dose” value [1] read?
A: favorably tested

Q: With `C[C@H]1c2cccc(O)c2C(=O)C2=C(O)[C@]3(O)C(=O)C(C(N)=O)=C(O)[C@@H](N(C)C)[C@@H]3[C@@H](O)[C@@H]21` [doxycycline] as the compound, how does the tolerance [1] read?
A: not well tolerated

Q: For `CN(C)[C@@H]1C(O)=C(C(N)=O)C(=O)[C@@]2(O)C(O)=C3C(=O)c4c(O)cccc4[C@@](C)(O)[C@H]3C[C@@H]12` [tetracycline], which survival [2] is on record?
A: 60%
